From patent US20080171788A1, “Medicament For Irritable Bowel Syndrome” (priority 2005, published 2008)
“Also recorded” adds a separate entry of the source.

What was measured:
male Wister rats = test: Rat restraint stress-induced defecation model; type: in vivo; conditions: for evacuation suppressing action: 10 mg/kg p.o., used independently, 10 mg/kg; for number of excreted stools, comparison with the non-administration group: each of the 1, 3 and 10 mg/kg administration groups, N=10
Procedure: IBS-treating effect of the medicine of the invention was evaluated using a test method in which the amount of evacuations is measured by applying a restriction stress to rats (cf. J. Pharmacol. Exp. Ther. (1992) 261, 297-303). […] Each drug to be tested was administered to male Wister rats (body weight 250 to 320 g, 10 animals for each group), and a restraint stress was loaded 30 minutes thereafter. A restraint stress cage (KN-468, 265 mm in width×95 mm in length×200 mm in height, mfd. by Natsume Seisakusho, Tokyo) was used for the restraint stress loading, and the number of excreted stool was counted 1 hour after the stress loading. […] The control means the number of stools at the time of no stress loading, namely the reference value.

α1 receptor = test: Affinity for other receptors: α1; type: binding
5-HT2B receptor = 5-HT2B receptor (Homo sapiens, UniProt P41595); conditions: in comparison with 5-HT1A, 5-HT1B, 5-HT2A, 5-HT2C, 5-HT3, 5-HT6, 5-HT7, α1, M1 and D2 receptors; cited from earlier work
Chain of 5-HT2B receptor (P41595 whole entry): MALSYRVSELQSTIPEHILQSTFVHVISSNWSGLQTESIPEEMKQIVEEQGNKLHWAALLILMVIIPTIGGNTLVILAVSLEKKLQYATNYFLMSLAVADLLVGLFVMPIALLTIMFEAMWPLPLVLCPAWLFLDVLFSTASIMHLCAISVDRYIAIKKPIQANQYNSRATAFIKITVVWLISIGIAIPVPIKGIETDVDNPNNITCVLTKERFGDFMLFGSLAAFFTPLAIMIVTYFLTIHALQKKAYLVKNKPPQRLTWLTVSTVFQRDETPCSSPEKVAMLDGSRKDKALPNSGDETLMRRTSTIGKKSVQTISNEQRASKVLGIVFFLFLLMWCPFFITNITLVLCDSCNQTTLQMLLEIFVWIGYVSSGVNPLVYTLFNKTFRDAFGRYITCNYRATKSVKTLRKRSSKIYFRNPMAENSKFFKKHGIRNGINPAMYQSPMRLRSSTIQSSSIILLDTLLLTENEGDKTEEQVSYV

**Q.** Which evacuation suppression action (male Wister rats; 3 mg/kg (p.o.)) does the source give for `Cl.NC(N)=NC(=O)c1ccc2c(c1)C1(CCCO1)c1ccccc1-2` (single isomer, unassigned) [Production Example 60b] here?
**A.** The evacuation suppression action was “suppression action similar to the level of Production Example 3”.

**Q.** With `CC1CCN(CC[C@H]2CCCN2S(=O)(=O)c2cccc(O)c2)CC1` [SB-269970, (R)-3-(2-(2-(4-methylpiperidine-1-yl)ethyl)pyrrolidine-1-sulfonyl)phenol] as the compound, how does the evacuation suppressing action (male Wister rats) read?
**A.** Its evacuation suppressing action is “did not show the evacuation suppressing action; also recorded: do not show the reaction”.

**Q.** What about the “number of excreted stools, comparison with the non-administration group” value (male Wister rats) of the same compound?
**A.** The value was “Significant difference was not found”.

**Q.** With `Cl.NC(N)=NC(=O)c1ccc2c(c1)C(O)c1ccccc1-2` (centres unmarked) [Production Example 3, N-(diaminomethylene)-9-hydroxy-9H-fluorene-2-carboxamide hydrochloride] as the compound, how does the IC50 (α1 receptor) read?
**A.** The IC50 was ≥ 1 µM.

**Q.** And the evacuation suppression action (male Wister rats; 3 mg/kg intraperitoneally (i.p.))?
**A.** Its evacuation suppression action is “significant suppression action”.

**Q.** With `CC(C)c1cc(-c2ccc(F)c3ccccc23)nc(N)n1` [RS-127445, 2-amino-4-(4-fluoronaphtho-1-yl)-6-isopropylpyrimidine] as the compound, how does the evacuation suppressing action (male Wister rats) read?
**A.** Its evacuation suppressing action is “did not show the evacuation suppressing action; also recorded: do not show the reaction”.

**Q.** What about the “number of excreted stools, comparison with the non-administration group” value (male Wister rats) of the same compound?
**A.** Its value is “Significant difference was not found”.

**Q.** What about the “selectivity for 5-HT2B receptor” value (5-HT2B receptor) of the same compound?
**A.** Its value is ≥ 1,000 times.
